Assay results reported in PubChem BioAssay AID1259407 (Chemical Carcinogenesis Research Information System (CCRIS), 2018).
The source made the active and inactive calls. No rule for the calls is given here.

System: CCRIS mutagenicity, Ames/micronucleus/aberration tests
Assay: CCRIS mutagenicity studies

Measured: mutagenic call

Cc1ccc(N)cc1N
active: End Point: IN VITRO CHROMOSOMAL ABERRATIONS, Test System: CHL CELLS, Metabolic Activation: NONE active; positive (structural changes) | End Point: IN VITRO CHROMOSOMAL ABERRATIONS, Test System: CHL CELLS, Metabolic Activation: RAT, LIVER, S-9, SODIUM PHENOBARBITAL AND 5,6-BENZOFLAVONE active; positive (structural changes) | End Point: IN VITRO CHROMOSOMAL ABERRATIONS, Test System: CHO-LB CELLS, Metabolic Activation: NONE active; positive | End Point: IN VITRO CHROMOSOMAL ABERRATIONS, Test System: CHO-LB CELLS, Metabolic Activation: RAT, LIVER, S-9, AROCLOR 1254 active; positive | End Point: IN VITRO CHROMOSOMAL ABERRATIONS, Test System: CHO-WBL CELLS, Metabolic Activation: NONE active; positive | End Point: IN VITRO MICRONUCLEUS, Test System: HUMAN HEPATOMA HEP G2 CELLS, Metabolic Activation: NONE active; positive | Test System: AMES SALMONELLA TYPHIMURIUM, Strain/Indicator: TA98(PYG219), Metabolic Activation: RAT, LIVER, S-9, AROCLOR 1254, Method: STANDARD PLATE active; positive | Test System: AMES SALMONELLA TYPHIMURIUM, Strain/Indicator: TA98, Metabolic Activation: MOUSE, LIVER, S-9, PHENOBARBITONE AND BETA-NAPHTHOFLAVONE, Method: STANDARD PLATE active; positive | Test System: AMES SALMONELLA TYPHIMURIUM, Strain/Indicator: TA98, Metabolic Activation: RAT LIVER MICROSOMES, AROCLOR 1254, Method: PREINCUBATION active; positive | Test System: AMES SALMONELLA TYPHIMURIUM, Strain/Indicator: TA98, Metabolic Activation: RAT LIVER S-9, AROCLOR 1254, Method: MICROSUSPENSION active; positive | Test System: AMES SALMONELLA TYPHIMURIUM, Strain/Indicator: TA98, Metabolic Activation: RAT LIVER S-9, PHENOBARBITAL AND BETA-NAPHTHOFLAVONE, Method: PREINCUBATION active; positive | Test System: AMES SALMONELLA TYPHIMURIUM, Strain/Indicator: TA98, Metabolic Activation: RAT, LIVER, HEPATOCYTES, AROCLOR 1254, Method: STANDARD PLATE active; positive | Test System: AMES SALMONELLA TYPHIMURIUM, Strain/Indicator: TA98, Metabolic Activation: RAT, LIVER, MICROSOMES, AROCLOR 1254, Method: PREINCUBATION active; positive | Test System: AMES SALMONELLA TYPHIMURIUM, Strain/Indicator: TA98, Metabolic Activation: RAT, LIVER, MICROSOMES, BENZO[A]PYRENE, Method: PREINCUBATION active; positive | Test System: AMES SALMONELLA TYPHIMURIUM, Strain/Indicator: TA98, Metabolic Activation: RAT, LIVER, MICROSOMES, DIAMINOTOLUENE, Method: PREINCUBATION active; positive | Test System: AMES SALMONELLA TYPHIMURIUM, Strain/Indicator: TA98, Metabolic Activation: RAT, LIVER, S-9, AROCLOR 1254, Method: STANDARD PLATE active; positive
inactive: Test System: AMES SALMONELLA TYPHIMURIUM, Strain/Indicator: TA97, Metabolic Activation: RAT, LIVER, S-9, AROCLOR 1254 (4 OR 10%), Method: STANDARD PLATE inactive; negative | Test System: AMES SALMONELLA TYPHIMURIUM, Strain/Indicator: TA98(1,8-DNP6), Metabolic Activation: PLANT CELLS, Method: PREINCUBATION inactive; negative | Test System: AMES SALMONELLA TYPHIMURIUM, Strain/Indicator: TA98(1,8-DNP6), Metabolic Activation: RAT, LIVER, S-9, AROCLOR 1254, Method: STANDARD PLATE inactive; negative | Test System: AMES SALMONELLA TYPHIMURIUM, Strain/Indicator: TA98, Metabolic Activation: NONE, Method: MICROSUSPENSION inactive; negative | Test System: AMES SALMONELLA TYPHIMURIUM, Strain/Indicator: TA98, Metabolic Activation: NONE, Method: SUSPENSION/PLATE inactive; negative | Test System: AMES SALMONELLA TYPHIMURIUM, Strain/Indicator: TA98, Metabolic Activation: PLANT CELLS, Method: PREINCUBATION inactive; negative | Test System: AMES SALMONELLA TYPHIMURIUM, Strain/Indicator: TA98, Metabolic Activation: RAT LIVER CYTOSOL, AROCLOR 1254, Method: PREINCUBATION inactive; negative | Test System: AMES SALMONELLA TYPHIMURIUM, Strain/Indicator: TA98, Metabolic Activation: RAT, LIVER, MICROSOMES, CLOFIBRATE, Method: PREINCUBATION inactive; negative | Test System: AMES SALMONELLA TYPHIMURIUM, Strain/Indicator: TA98, Metabolic Activation: RAT, LIVER, MICROSOMES, DEXAMETHASONE, Method: PREINCUBATION inactive; negative | Test System: AMES SALMONELLA TYPHIMURIUM, Strain/Indicator: TA98, Metabolic Activation: RAT, LIVER, MICROSOMES, ISONIAZID, Method: PREINCUBATION inactive; negative | Test System: AMES SALMONELLA TYPHIMURIUM, Strain/Indicator: TA98, Metabolic Activation: RAT, LIVER, MICROSOMES, PHENOBARBITAL, Method: PREINCUBATION inactive; negative | Test System: AMES SALMONELLA TYPHIMURIUM, Strain/Indicator: TA98, Metabolic Activation: RAT, LIVER, MICROSOMES, Method: PREINCUBATION inactive; negative
